One assay relates to Puccinia triticina. Put plainly: Fungicidal activity: wheat brown rust (PUCCRT), disease control on wheat seedlings. The class given is in vivo. The settings on record: for pest or weed control at 121.5 g/ha: low volume application, 121.5 g/H; for pest or weed control at 100 ppm: high volume application. As for the experimental part: Technical grades of materials were dissolved in acetone, which were then mixed with nine volumes of water (H2O) containing 110 ppm Triton X-100. The fungicide solutions were applied onto wheat seedlings using an automated booth sprayer to run-off. All sprayed plants were allowed to air dry prior to further handling. All fungicides were evaluated using the aforementioned method for their activity vs. all target diseases, unless stated otherwise. Wheat leaf blotch and brown rust activity were also evaluated using track spray applications, in which case the fungicides were formulated as EC formulations, containing 0.1% Trycol 5941 in the spray solutions. Wheat plants (variety Yuma) were grown from seed in a greenhouse in 50% mineral soil/50% soil-less Metro mix until the first leaf was fully emerged, with 7-10 seedlings per pot. These plants were inoculated with an aqueous spore suspension of Puccinia triticina either prior to or after fungicide treatments. After inoculation the plants were kept in a dark dew room at 22° C. with 100% relative humidity overnight to permit spores to germinate and infect the leaf. The plants were then transferred to a greenhouse set at 24° C. for disease to develop. Fungicide formulation, application and disease assessment followed the procedures as described in the Example A. Results of the evaluations are shown below in Table 4.

The subject of a further assay is Zymoseptoria tritici. Put plainly: Fungicidal activity: leaf blotch of wheat (SEPTTR), disease control on wheat seedlings. The class given is in vivo. The settings on record: for pest or weed control at 121.5 g/ha: low volume application, 121.5 g/H; for pest or weed control at 100 ppm: high volume application. As for the experimental part: Technical grades of materials were dissolved in acetone, which were then mixed with nine volumes of water (H2O) containing 110 ppm Triton X-100. The fungicide solutions were applied onto wheat seedlings using an automated booth sprayer to run-off. All sprayed plants were allowed to air dry prior to further handling. All fungicides were evaluated using the aforementioned method for their activity vs. all target diseases, unless stated otherwise. Wheat leaf blotch and brown rust activity were also evaluated using track spray applications, in which case the fungicides were formulated as EC formulations, containing 0.1% Trycol 5941 in the spray solutions. Wheat plants (variety Yuma) were grown from seed in a greenhouse in 50% mineral soil/50% soil-less Metro mix until the first leaf was fully emerged, with 7-10 seedlings per pot. These plants were inoculated with an aqueous spore suspension of Zymoseptoria tritici either prior to or after fungicide treatments. After inoculation the plants were kept in 100% relative humidity (one day in a dark dew chamber followed by two to three days in a lighted dew chamber at 20° C.) to permit spores to germinate and infect the leaf. The plants were then transferred to a greenhouse set at 20° C. for disease to develop. When disease symptoms were fully expressed on the 1st leaves of untreated plants, infection levels were assessed on a scale of 0 to 100 percent disease severity. Percent disease control was calculated using the ratio of disease severity on treated plants relative to untreated plants.

Where [1] appears, read: 24 h, 1 day protectant, read-out: PUCCRT disease control, 1DP, LV activity at 121.5 g/H.
The mark [2] stands for this setting: 72 h, 3 day curative, read-out: PUCCRT disease control, 3DC, LV activity at 121.5 g/H.
Where [3] appears, read: 24 h, 1 day protectant, read-out: SEPTTR disease control, 1DP, LV activity at 121.5 g/H.
The mark [4] stands for this setting: 72 h, 3 day curative, read-out: SEPTTR disease control, 3DC, LV activity at 121.5 g/H.
The mark [5] stands for this setting: 24 h, 1 day protectant, read-out: PUCCRT disease control, 1DP, HV activity at 100 ppm.
The mark [6] stands for this setting: 72 h, 3 day curative, read-out: PUCCRT disease control, 3DC, HV activity at 100 ppm.
The mark [7] stands for this setting: 24 h, 1 day protectant, read-out: SEPTTR disease control, 1DP, HV activity at 100 ppm.
The mark [8] stands for this setting: 72 h, 3 day curative, read-out: SEPTTR disease control, 3DC, HV activity at 100 ppm.

The structures appear in SMILES notation. Like-named read-outs stand apart in the source and are kept apart here.

With `COc1cc(C(c2ccc(C)c(OC)c2)[C@H](C)OC(=O)[C@H](C)NC(=O)c2c(O)c(OC)cc[n+]2[O-])ccc1C` [Compound 18], the pest or weed control at 121.5 g/ha was ≤ 80% in the assay with Puccinia triticina (setting [1]), ≤ 80% in the assay with Puccinia triticina (setting [2]), > 80% with Zymoseptoria tritici (setting [3]) and > 80% in the assay on Zymoseptoria tritici (setting [4]).
`COc1cc[n+]([O-])c(C(=O)N[C@@H](C)C(=O)O[C@@H](C)C(c2ccc(C)c(F)c2)c2ccc(C)c(F)c2)c1O` [Compound 19]: the pest or weed control at 121.5 g/ha with Puccinia triticina (setting [1]) was ≤ 80%; in the assay on Puccinia triticina (setting [2]), ≤ 80%; in the assay with Zymoseptoria tritici (setting [3]), > 80%; in the assay with Zymoseptoria tritici (setting [4]), > 80%.
Turning to `COc1cc[n+]([O-])c(C(=O)N[C@@H](C)C(=O)O[C@@H](C)C(c2ccc(F)c(F)c2)c2ccc(F)c(F)c2)c1O` [Compound 21], the pest or weed control at 121.5 g/ha in the assay on Puccinia triticina (setting [2]) was ≤ 80%; in the assay on Zymoseptoria tritici (setting [3]), > 80%; in the assay with Zymoseptoria tritici (setting [4]) it was > 80%.
Regarding `COc1cc[n+]([O-])c(C(=O)N[C@@H](C)C(=O)O[C@@H](C)[C@@H](c2ccccc2)c2ccc(F)cc2C)c1O` [Compound 22], the pest or weed control at 100 ppm in the assay with Puccinia triticina (setting [5]), with Puccinia triticina (setting [6]), in the assay with Zymoseptoria tritici (setting [7]) and with Zymoseptoria tritici (setting [8]) was > 80% each time. Moreover, the pest or weed control at 121.5 g/ha with Puccinia triticina (setting [1]), with Puccinia triticina (setting [2]), in the assay on Zymoseptoria tritici (setting [3]) and in the assay with Zymoseptoria tritici (setting [4]) was > 80% in each case.
For `COc1cc(F)ccc1[C@@H](c1ccc(F)c(C)c1)[C@H](C)OC(=O)[C@H](C)NC(=O)c1c(O)c(OC)cc[n+]1[O-]` [Compound 23], the pest or weed control at 100 ppm in the assay on Puccinia triticina (setting [5]), in the assay with Puccinia triticina (setting [6]), with Zymoseptoria tritici (setting [7]) and with Zymoseptoria tritici (setting [8]) was > 80% throughout.
For the molecule `COc1cc(F)ccc1[C@@H](c1ccc(F)cc1)[C@H](C)OC(=O)[C@H](C)NC(=O)c1c(O)c(OC)cc[n+]1[O-]` [Compound 24], the pest or weed control at 100 ppm in the assay on Puccinia triticina (setting [5]), with Puccinia triticina (setting [6]), in the assay on Zymoseptoria tritici (setting [7]) and in the assay on Zymoseptoria tritici (setting [8]) was > 80% in each case. Moreover, the pest or weed control at 121.5 g/ha is > 80% with Puccinia triticina (setting [1]), ≤ 80% in the assay with Puccinia triticina (setting [2]), > 80% in the assay on Zymoseptoria tritici (setting [3]) and > 80% in the assay with Zymoseptoria tritici (setting [4]).
Consider `COc1cc[n+]([O-])c(C(=O)N[C@@H](C)C(=O)O[C@@H](C)C(c2cccc(C)c2)c2cccc(C)c2)c1O` [Compound 25], for which the pest or weed control at 100 ppm in the assay with Puccinia triticina (setting [5]), in the assay with Puccinia triticina (setting [6]), in the assay with Zymoseptoria tritici (setting [7]) and in the assay with Zymoseptoria tritici (setting [8]) was > 80% each time. The pest or weed control at 121.5 g/ha in the assay on Puccinia triticina (setting [1]), in the assay on Puccinia triticina (setting [2]), with Zymoseptoria tritici (setting [3]) and in the assay on Zymoseptoria tritici (setting [4]) was > 80% in each case.
Take `COc1ccc(C(c2ccc(OC)cc2)[C@H](C)OC(=O)[C@H](C)NC(=O)c2c(O)c(OC)cc[n+]2[O-])cc1` [Compound 26]: the pest or weed control at 100 ppm in the assay on Puccinia triticina (setting [5]), in the assay on Puccinia triticina (setting [6]), in the assay on Zymoseptoria tritici (setting [7]) and with Zymoseptoria tritici (setting [8]) was > 80% throughout.
For `COc1cc[n+]([O-])c(C(=O)N[C@@H](C)C(=O)O[C@@H](C)[C@H](c2ccc(C)cc2)c2ccc(C)cc2F)c1O` [Compound 28], the pest or weed control at 100 ppm in the assay on Puccinia triticina (setting [5]), in the assay on Zymoseptoria tritici (setting [7]) and in the assay with Zymoseptoria tritici (setting [8]) was > 80% throughout. Moreover, the pest or weed control at 121.5 g/ha is > 80% in the assay on Puccinia triticina (setting [1]), ≤ 80% in the assay on Puccinia triticina (setting [2]), > 80% in the assay with Zymoseptoria tritici (setting [3]) and > 80% with Zymoseptoria tritici (setting [4]).

Source of the values: US10111432B2, “Picolinamide N-oxide compounds with fungicidal activity” (Dow AgroSciences LLC, priority 2016, dated 2018).
